From patent US20210077559A1, “Treating Autoimmune Disorders with Acetylcholinesterase Inhibitors” (priority 2018, published 2021)

Assays:
Demodex mites [1] = test: In vitro Demodex survival time assay; conditions: in vitro assay (FIG. 3 and 4)
Procedure: FIG. 4 summarizes the activity of 10% chloroquine in water relative to a water control on activity against Demodex mites in an in vitro assay, with an LT50 of 31.6 hours for chloroquine compared to 44.8 hours for the water control, illustrating the inactivation effect of chloroquine on Demodex.
Example 4: In vitro efficacy and mite lifetimes: Relative efficacy of various formulations are evaluated with a Demodex survival time experiments. FIG. 3 tabulates Demodex survival time, expressed in terms of LT50 (time at which 50% of Demodex mites are killed) and/or average minutes to death for various active agents.

Demodex mites [2] = conditions: dichlorvos 1%, one patient; PCT Pub. No. WO 2015/017328; cited from earlier work

Row | Compound | activity against Demodex mites (Demodex mites [1]) | remission of Papulopostular Rosacea (PPR) (Demodex mites [2])
1 | CCN(CC)CCCC(C)Nc1ccnc2cc(Cl)ccc12 (centres unmarked) [chloroquine] | has activity against Demodex mites | –
2 | COP(=O)(OC)OC=C(Cl)Cl [dichlorvos] | – | complete and continued remission
